What was measured:
A2780 [1] = assay: Antiproliferative activity against human A2780 cells measured after 48 hrs by MTT assay; assay type: functional, cell-based; details: A2780, 48 h
[2] = biological target: Insulin-like growth factor 1 receptor (Homo sapiens) (UniProt P08069); assay: Inhibition of IGF1R (unknown origin) using poly (Glu, Tyr) 4:1 as substrate at 100 uM after 1 hr by ELISA relative to control
A2780 [3] = assay: Cell cycle arrest in human A2780 cells assessed as decrease in G2/M phase after 48 hrs by propidium iodide staining based flow cytometry; assay type: functional
[4] = biological target: Mast/stem cell growth factor receptor Kit (Homo sapiens) (UniProt P10721); assay: Inhibition of c-kit (unknown origin) using poly (Glu, Tyr) 4:1 as substrate at 100 uM after 1 hr by ELISA relative to control
[5] = biological target: Hepatocyte growth factor receptor (Homo sapiens) (UniProt P08581); assay: Inhibition of c-Met (unknown origin) using poly (Glu, Tyr) 4:1 as substrate at 100 uM after 1 hr by ELISA relative to control
[6] = biological target: 5'-AMP-activated protein kinase catalytic subunit alpha-1 (Homo sapiens) (UniProt Q13131); assay: Inhibition of full length recombinant human AMPKalpha1 using AMARAASAAALARRR as substrate at 100 uM after 40 mins in presence of ATP relative to control
[7] = biological target: Epidermal growth factor receptor (Homo sapiens) (UniProt P00533); assay: Inhibition of EGFR (unknown origin) using poly (Glu, Tyr) 4:1 as substrate at 100 uM after 1 hr by ELISA relative to control
A2780 [8] = assay: Cell cycle arrest in human A2780 cells assessed as accumulation at G0/G1 phase at 5 to 15 uM after 48 hrs by propidium iodide staining based flow cytometry ( Rvb = 60%); assay type: functional
[9] = biological target: Mitogen-activated protein kinase 8 (Homo sapiens) (UniProt P45983); assay: Inhibition of human JNK1alpa1 using at 100 uM after 90 mins in presence of ATP relative to control
Homo sapiens = species on record: Homo sapiens; assay: Inhibition of recombinant human CK2 using Ulight-IkappaB-alpha as substrate at 100 uM after 60 mins in presence of ATP relative to control
[10] = biological target: Fibroblast growth factor receptor 1 (Homo sapiens) (UniProt P11362); assay: Inhibition of FGFR1 (unknown origin) using poly (Glu, Tyr) 4:1 as substrate at 100 uM after 1 hr by ELISA relative to control
[11] = biological target: Mitogen-activated protein kinase 13 (Homo sapiens) (UniProt O15264); assay: Inhibition of recombinant human SAPK4 using Ulight-CFFKNIVTPRTPPPSQGK-amide as substrate at 100 uM after 15 mins in presence of ATP relative to control
Saccharomyces cerevisiae = assay: Inhibition of yeast CK1 using poly (Glu, Tyr) 4:1 as substrate after 1 hr by ELISA relative to control; details: concentration not given here
[12] = biological target: Vascular endothelial growth factor receptor 2 (Homo sapiens) (UniProt P35968); assay: Inhibition of KDR (unknown origin) using poly (Glu, Tyr) 4:1 as substrate at 100 uM after 1 hr by ELISA relative to control
[13] = biological target: Platelet-derived growth factor receptor alpha (Homo sapiens) (UniProt P16234); assay: Inhibition of PDGFRalpha (unknown origin) using poly (Glu, Tyr) 4:1 as substrate at 100 uM after 1 hr by ELISA relative to control
[14] = biological target: RAC-alpha serine/threonine-protein kinase (Homo sapiens) (UniProt P31749); assay: Inhibition of recombinant human PKBalpha using CREBtide (CKRREILSRRPSYRK) as substrate at 100 uM after 60 mins in presence of ATP relative to control
[15] = biological target: T1, Glycogen synthase kinase-3 beta (Homo sapiens, UniProt P49841); assay: Inhibition of recombinant human GSK3beta using […] as substrate at 100 uM after 60 mins by spectrophotometric analysis
Target sequence in this assay (P49841 whole entry, looked up): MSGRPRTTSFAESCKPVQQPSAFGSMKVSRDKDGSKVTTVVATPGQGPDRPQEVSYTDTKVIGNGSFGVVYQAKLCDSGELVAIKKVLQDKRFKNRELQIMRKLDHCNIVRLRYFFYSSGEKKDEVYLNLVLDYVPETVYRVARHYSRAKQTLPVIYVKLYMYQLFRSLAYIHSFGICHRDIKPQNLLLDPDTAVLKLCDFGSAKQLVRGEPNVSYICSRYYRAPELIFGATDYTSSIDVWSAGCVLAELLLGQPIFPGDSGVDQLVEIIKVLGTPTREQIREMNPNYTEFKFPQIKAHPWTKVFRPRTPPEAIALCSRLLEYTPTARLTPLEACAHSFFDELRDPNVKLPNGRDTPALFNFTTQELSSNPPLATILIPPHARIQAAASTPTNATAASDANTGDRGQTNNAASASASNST

[16] = biological target: Receptor tyrosine-protein kinase erbB-2 (Homo sapiens) (UniProt P04626); assay: Inhibition of ErbB2 (unknown origin) using poly (Glu, Tyr) 4:1 as substrate at 100 uM after 1 hr by ELISA relative to control
Mus musculus = assay: Toxicity in nude BALB/c mouse xenografted with human A2780 cells assessed as body weight loss at 30 mg/kg, ip administered once every 2 days for 14 consecutive days relative to control; assay type: organism-based; details: in vivo, 48 h
A2780 [17] = assay: Antitumor activity against human A2780 cells xenografted in BALB/c nude mouse assessed as tumor growth inhibition at 50 mg/kg, ip administered once every 2 days for 14 consecutive days relative to control; assay type: functional; details: read-out: TGI
[18] = biological target: Vascular endothelial growth factor receptor 1 (Homo sapiens) (UniProt P17948); assay: Inhibition of VEGFR-1 (unknown origin) using poly (Glu, Tyr) 4:1 as substrate at 100 uM after 1 hr by ELISA relative to control
[19] = biological target: T1, Glycogen synthase kinase-3 beta; assay: biochemical
Target sequence in this assay (P49841 whole entry): as the sequence (P49841 whole entry, looked up) above
Description: Inhibition of recombinant N-terminal His6-tagged human GSK3beta H350L mutant expressed in baculovirus infected Sf21 insect cells using polypeptide GS-2 as substrate after 30 mins in presence of ATP by kinase-glo luminescence assay

A2780 [20] = assay: Induction of apoptosis in human A2780 cells after 24 hrs by annexin V/propidium iodide staining based flow cytometry; assay type: functional, cell-based
[21] = biological target: Cyclin-dependent kinase 2/cyclin E1 (Homo sapiens) (UniProt P24864+P24941); assay: Inhibition of recombinant human CDK2/CyclinE using Ulight-CFFKNIVTPRTPPPSQGK-amide as substrate at 100 uM after 30 mins in presence of ATP relative to control; assay type: protein-complex assay
cells = details: Homo sapiens, OVCA433, 48 h
Description: Antiproliferative activity against human OVCA433 cells measured after 48 hrs by MTT assay

[22] = biological target: ALK tyrosine kinase receptor (Homo sapiens) (UniProt Q9UM73); assay: Inhibition of ALK (unknown origin) using poly (Glu, Tyr) 4:1 as substrate at 100 uM after 1 hr by ELISA relative to control
[23] = biological target: 3-phosphoinositide-dependent protein kinase 1 (Homo sapiens) (UniProt O15530); assay: Inhibition of recombinant human PDK1 using Ulight-FLGFTYVAP as substrate at 100 uM after 90 mins in presence of ATP relative to control
[24] = biological target: Mitogen-activated protein kinase 12 (Homo sapiens) (UniProt P53778); assay: Inhibition of full length recombinant human SAPK3 at 100 uM in presence of ATP relative to control
[25] = biological target: Mitogen-activated protein kinase 1 (Homo sapiens) (UniProt P28482); assay: Inhibition of human MAPK2 at 100 uM in presence of ATP relative to control
[26] = biological target: Receptor tyrosine-protein kinase erbB-4 (Homo sapiens) (UniProt Q15303); assay: Inhibition of ErbB4 (unknown origin) using poly (Glu, Tyr) 4:1 as substrate at 100 uM after 1 hr by ELISA relative to control
A2780 [27] = assay: Induction of apoptosis in human A2780 cells assessed as total apoptotic cells at 5 to 20 uM after 24 hrs by annexin V/propidium iodide staining based flow cytometry (reference value: 17.3%); assay type: functional

Chain of Hepatocyte growth factor receptor (Homo sapiens) (P08581 whole entry): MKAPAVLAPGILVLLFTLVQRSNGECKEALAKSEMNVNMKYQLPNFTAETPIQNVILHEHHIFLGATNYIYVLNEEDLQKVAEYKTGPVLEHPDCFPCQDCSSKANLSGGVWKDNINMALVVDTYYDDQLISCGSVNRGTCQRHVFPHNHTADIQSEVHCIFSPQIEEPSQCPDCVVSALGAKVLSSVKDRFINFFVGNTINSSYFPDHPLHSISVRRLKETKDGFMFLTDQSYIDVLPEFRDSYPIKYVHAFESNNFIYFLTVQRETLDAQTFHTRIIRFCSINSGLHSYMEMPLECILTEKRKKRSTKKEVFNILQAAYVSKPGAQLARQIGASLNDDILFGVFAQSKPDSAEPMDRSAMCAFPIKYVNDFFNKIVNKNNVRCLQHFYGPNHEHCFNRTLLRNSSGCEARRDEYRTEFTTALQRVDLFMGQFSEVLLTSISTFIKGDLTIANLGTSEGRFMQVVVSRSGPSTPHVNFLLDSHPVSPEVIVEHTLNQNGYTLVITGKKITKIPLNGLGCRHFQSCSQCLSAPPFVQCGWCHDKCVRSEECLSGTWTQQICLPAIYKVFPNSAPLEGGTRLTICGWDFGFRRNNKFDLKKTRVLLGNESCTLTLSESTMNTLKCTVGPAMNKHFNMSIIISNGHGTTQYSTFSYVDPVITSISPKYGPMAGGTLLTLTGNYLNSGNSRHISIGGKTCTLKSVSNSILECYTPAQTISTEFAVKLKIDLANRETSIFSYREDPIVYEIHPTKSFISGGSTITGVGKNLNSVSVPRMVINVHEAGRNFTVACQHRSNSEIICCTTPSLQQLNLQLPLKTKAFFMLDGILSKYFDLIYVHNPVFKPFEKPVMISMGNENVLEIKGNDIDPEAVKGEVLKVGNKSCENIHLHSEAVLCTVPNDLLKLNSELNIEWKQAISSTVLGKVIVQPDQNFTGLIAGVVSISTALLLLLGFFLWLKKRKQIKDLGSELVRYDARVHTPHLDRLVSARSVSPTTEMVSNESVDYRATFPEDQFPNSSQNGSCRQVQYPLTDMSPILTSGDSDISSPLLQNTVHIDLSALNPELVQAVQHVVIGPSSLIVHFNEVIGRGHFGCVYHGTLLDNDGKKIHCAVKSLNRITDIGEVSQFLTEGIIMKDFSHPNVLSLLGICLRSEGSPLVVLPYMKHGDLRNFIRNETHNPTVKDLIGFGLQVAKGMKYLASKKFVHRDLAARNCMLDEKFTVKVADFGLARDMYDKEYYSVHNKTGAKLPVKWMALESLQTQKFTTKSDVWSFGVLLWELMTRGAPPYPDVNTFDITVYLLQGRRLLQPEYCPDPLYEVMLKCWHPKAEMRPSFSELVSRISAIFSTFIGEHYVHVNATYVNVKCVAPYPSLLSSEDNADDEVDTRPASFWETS
Chain of 3-phosphoinositide-dependent protein kinase 1 (Homo sapiens) (O15530 whole entry): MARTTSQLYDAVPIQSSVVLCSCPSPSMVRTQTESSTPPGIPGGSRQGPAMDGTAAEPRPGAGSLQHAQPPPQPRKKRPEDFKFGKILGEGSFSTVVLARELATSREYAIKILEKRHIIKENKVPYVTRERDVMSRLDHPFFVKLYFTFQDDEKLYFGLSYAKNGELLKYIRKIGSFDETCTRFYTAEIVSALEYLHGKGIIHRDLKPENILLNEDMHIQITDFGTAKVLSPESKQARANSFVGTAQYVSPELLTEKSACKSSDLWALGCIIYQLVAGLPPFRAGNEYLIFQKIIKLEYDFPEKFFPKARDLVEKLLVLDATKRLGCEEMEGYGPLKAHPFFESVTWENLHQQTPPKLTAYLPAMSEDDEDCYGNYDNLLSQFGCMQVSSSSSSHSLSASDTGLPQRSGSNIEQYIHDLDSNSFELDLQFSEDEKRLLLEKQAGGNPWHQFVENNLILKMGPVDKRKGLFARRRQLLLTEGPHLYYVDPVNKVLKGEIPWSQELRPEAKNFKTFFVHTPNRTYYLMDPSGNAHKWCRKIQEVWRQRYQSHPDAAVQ
Chain of Vascular endothelial growth factor receptor 2 (Homo sapiens) (P35968 whole entry): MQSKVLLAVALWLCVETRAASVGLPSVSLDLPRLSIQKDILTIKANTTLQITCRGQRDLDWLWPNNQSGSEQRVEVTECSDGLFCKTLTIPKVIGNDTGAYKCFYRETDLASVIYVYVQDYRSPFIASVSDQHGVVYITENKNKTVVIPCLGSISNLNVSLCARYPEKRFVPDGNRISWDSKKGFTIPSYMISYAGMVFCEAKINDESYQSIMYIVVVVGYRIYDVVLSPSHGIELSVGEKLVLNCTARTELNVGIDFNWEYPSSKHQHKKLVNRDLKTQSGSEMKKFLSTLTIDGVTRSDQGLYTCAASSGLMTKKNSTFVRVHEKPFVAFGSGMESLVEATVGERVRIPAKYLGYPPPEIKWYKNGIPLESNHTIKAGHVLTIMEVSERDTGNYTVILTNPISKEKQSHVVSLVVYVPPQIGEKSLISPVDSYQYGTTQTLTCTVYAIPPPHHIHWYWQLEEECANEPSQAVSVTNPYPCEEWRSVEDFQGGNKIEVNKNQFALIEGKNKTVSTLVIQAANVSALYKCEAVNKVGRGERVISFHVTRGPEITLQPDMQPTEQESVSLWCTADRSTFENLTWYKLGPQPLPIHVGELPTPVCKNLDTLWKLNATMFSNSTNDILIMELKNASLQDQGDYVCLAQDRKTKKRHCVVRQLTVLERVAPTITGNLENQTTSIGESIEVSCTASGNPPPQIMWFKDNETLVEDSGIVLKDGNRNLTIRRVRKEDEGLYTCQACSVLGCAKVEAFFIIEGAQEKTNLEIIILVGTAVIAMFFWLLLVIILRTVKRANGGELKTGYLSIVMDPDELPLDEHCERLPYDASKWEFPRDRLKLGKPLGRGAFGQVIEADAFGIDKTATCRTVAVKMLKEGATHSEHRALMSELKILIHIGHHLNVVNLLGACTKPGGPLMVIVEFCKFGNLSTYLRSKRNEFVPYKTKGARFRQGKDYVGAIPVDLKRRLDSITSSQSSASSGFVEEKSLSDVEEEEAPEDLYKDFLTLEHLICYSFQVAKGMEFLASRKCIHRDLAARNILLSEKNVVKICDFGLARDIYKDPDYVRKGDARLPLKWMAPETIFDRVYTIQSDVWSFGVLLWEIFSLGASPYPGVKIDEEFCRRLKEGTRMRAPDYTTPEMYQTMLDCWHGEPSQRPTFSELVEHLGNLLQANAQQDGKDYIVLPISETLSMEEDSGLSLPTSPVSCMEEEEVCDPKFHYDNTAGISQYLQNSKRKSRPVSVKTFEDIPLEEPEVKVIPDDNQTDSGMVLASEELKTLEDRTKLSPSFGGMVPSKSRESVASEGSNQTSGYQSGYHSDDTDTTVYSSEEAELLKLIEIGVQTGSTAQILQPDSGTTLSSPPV
Chain of Fibroblast growth factor receptor 1 (Homo sapiens) (P11362 22-822 limits assumed): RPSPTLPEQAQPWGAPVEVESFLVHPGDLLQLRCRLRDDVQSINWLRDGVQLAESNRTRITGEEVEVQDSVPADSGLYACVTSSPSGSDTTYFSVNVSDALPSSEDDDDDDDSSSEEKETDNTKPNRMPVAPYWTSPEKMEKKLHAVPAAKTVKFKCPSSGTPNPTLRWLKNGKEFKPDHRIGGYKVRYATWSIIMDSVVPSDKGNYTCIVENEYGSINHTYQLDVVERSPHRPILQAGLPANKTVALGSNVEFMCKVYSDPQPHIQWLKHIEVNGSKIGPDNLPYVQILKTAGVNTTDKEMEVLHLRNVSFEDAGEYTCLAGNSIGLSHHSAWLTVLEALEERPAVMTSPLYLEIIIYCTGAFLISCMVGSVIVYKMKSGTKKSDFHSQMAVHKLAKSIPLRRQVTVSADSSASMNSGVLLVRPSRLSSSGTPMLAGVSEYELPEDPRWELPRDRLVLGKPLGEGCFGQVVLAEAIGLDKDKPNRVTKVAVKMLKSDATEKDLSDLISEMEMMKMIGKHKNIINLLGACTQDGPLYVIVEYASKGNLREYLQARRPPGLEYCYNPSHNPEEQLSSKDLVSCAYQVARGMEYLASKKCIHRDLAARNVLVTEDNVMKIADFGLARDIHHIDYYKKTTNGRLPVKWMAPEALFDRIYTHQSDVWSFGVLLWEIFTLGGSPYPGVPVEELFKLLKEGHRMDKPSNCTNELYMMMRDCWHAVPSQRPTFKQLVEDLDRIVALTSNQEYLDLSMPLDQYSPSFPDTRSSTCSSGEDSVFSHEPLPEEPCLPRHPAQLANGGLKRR
Chain of RAC-alpha serine/threonine-protein kinase (Homo sapiens) (P31749 whole entry): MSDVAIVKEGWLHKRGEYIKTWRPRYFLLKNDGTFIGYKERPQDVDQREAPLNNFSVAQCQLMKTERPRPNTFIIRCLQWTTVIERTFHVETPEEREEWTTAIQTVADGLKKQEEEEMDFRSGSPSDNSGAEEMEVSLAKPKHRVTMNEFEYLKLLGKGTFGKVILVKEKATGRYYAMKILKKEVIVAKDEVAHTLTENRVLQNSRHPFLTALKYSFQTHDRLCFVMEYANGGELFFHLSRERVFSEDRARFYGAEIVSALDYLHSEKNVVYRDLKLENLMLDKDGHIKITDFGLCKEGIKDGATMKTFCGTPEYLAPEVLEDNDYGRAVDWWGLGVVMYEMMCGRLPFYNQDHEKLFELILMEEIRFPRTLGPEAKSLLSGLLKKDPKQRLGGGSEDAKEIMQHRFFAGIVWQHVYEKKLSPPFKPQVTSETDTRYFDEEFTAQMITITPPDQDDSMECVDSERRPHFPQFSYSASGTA

For `CCCCCCCCCCCCCCC(=O)NC1CCN(C(=O)C2Sc3ccccc3N(CC)C2=O)CC1` (stereo unspecified), the IC50 (A2780 [1]) was 4.6 µM, the inhibition [2] was 5.1% and the Activity (A2780 [3]) was “Dose-dependent effect”. The inhibition [4] was 0%, the inhibition [5] was -4.8% and the inhibition [6] was 34%. The inhibition [7] was 0%, the Activity (A2780 [8]) was 77.1% and the inhibition [9] was -3%. It also gave an inhibition (Homo sapiens) of 0%, an inhibition [10] of 9.3% and an inhibition [11] of 16%. It also gave an inhibition (Saccharomyces cerevisiae) of 14%, an inhibition [12] of 22.5% and an inhibition [13] of 0%. The inhibition [14] was 52%, the inhibition [15] was 94.3% and the inhibition [16] was 0%. For the same molecule, the Activity (Mus musculus) was “Non-Toxic”, the inhibition in vivo at 50 mg/kg (A2780 [17]) was 41.3% and the inhibition [18] was 6.8%. For the same molecule, the IC50 [19] was 22.4 µM, the Activity (A2780 [20]) was “Dose-dependent effect” and the inhibition [21] was 39%. It also gave an IC50 (cells) of 8.3 µM, an inhibition [22] of -1.7% and an inhibition [23] of 0%. For the same molecule, the inhibition [24] was 19%, the inhibition [25] was 7% and the inhibition [26] was 34.3%. For the same molecule, the Activity (A2780 [27]) was 83.3%.

From ChEMBL document CHEMBL4052632 (Eur J Med Chem, 2017)
